Test results: patent US20240287089A1, “Preparation and Uses of 7-Azaindenoisoquinolines” (Purdue Research Foundation, priority 0001, published 2024)

Columns and labels:
NCI-60 cancer cell lines = experiment: NCI-60 cytotoxicity assay, MGM; format: cell-based; details: Homo sapiens; entire panel of NCI-60 cancer cell lines; read-out: MGM (approximate average of GI50 values across the NCI-60 panel)
Method: (§1) The antiproliferative activities of the indenoisquinoline compounds are determined in the NCI-60 cancer cell lines of the National Cancer Institute Developmental Therapeutics Program (NCI-DTP). […] Cancer cells are incubated with the test compounds at five concentrations ranging from 100 μM to 10 nM for 48 h. After the treated cancer cells are stained with sulforhodamine B dye, the percentage growth is plotted as a function of the common logarithm of the tested compound concentration. […] The approximate average of GI50 values across the entire panel of NCI-60 cancer cell lines for each compound is recorded as the MGM value.
(§2) NCI-60 Cytotoxicity Assay. Compounds were submitted to the National Cancer Institute Developmental Therapeutic Program to determine their growth-inhibitory potentials in NCI-60 cell lines. All compounds satisfied the pre-screening proceeded into the 5-dose cell viability assay, in which cells were treated for 48 h at 5 dosages ranging from 100 μM to 10 nM.

SF-539 (CNS) = experiment: NCI-60 cytotoxicity assay; format: cell-based; details: Homo sapiens; SF-539 CNS; 48 h, sulforhodamine B; read-out: Comparative Cytotoxicity GI50, CNS SF-539
Method: as §1, §2

UACC-62 (Melanoma) = experiment: NCI-60 cytotoxicity assay; format: cell-based, human; details: Homo sapiens; UACC-62 melanoma; 48 h, sulforhodamine B; read-out: Comparative Cytotoxicity GI50, Melanoma UACC-62
Method: as §1, §2

HOP-62 (Lung) = experiment: NCI-60 cytotoxicity assay; format: cell-based, human; details: Homo sapiens; HOP-62 lung; 48 h, sulforhodamine B; read-out: Comparative Cytotoxicity GI50, Lung HOP-62
Method: as §1, §2

OVCAR-3 (Ovarian) = experiment: NCI-60 cytotoxicity assay; format: cell-based, human; details: Homo sapiens; OVCAR-3 ovarian; 48 h, sulforhodamine B; read-out: Comparative Cytotoxicity GI50, Ovarian OVCAR-3
Method: as §1, §2

SN12C (Renal) = experiment: NCI-60 cytotoxicity assay; format: cell-based, human; details: Homo sapiens; SN12C renal; 48 h, sulforhodamine B; read-out: Comparative Cytotoxicity GI50, Renal SN12C
Method: as §1, §2

MCF7 (Breast) = experiment: NCI-60 cytotoxicity assay; format: cell-based, human; details: Homo sapiens; MCF7 breast; 48 h, sulforhodamine B; read-out: Comparative Cytotoxicity GI50, Breast MCE7
Method: as §1, §2

DU-145 (Prostate) = experiment: NCI-60 cytotoxicity assay; format: cell-based, human; details: Homo sapiens; DU-145 prostate; 48 h, sulforhodamine B; read-out: Comparative Cytotoxicity GI50, Prostate DU-145
Method: as §1, §2

HCT-116 (Colon) = experiment: NCI-60 cytotoxicity assay; format: cell-based, human; details: Homo sapiens; HCT-116 colon; 48 h, sulforhodamine B; read-out: Comparative Cytotoxicity GI50, Colon HCT-116
Method: as §1, §2

[1] = Brain penetration and plasma/brain pharmacokinetics in combination with Temodar or Lynparza
Method: A similar analysis was performed with LMP744 and LMP400 in combination with Temodar and Lynparza.

[2] = Temador 125 mg/kg PO + LMP400 10 mg/kg IV, 1 h
[3] = Temador 125 mg/kg PO + LMP400 10 mg/kg IV, 2 h
[4] = Temador 125 mg/kg PO + LMP400 10 mg/kg IV, 4 h
[5] = Temador 125 mg/kg PO + LMP400 10 mg/kg IV, 8 h
[6] = Temador 125 mg/kg PO + LMP400 10 mg/kg IV, 24 h
[7] = Temador 125 mg/kg PO + LMP744 20 mg/kg IV, 0.25 h
[8] = Temador 125 mg/kg PO + LMP744 20 mg/kg IV, 0.5 h
[9] = Temador 125 mg/kg PO + LMP744 20 mg/kg IV, 1 h
[10] = Temador 125 mg/kg PO + LMP744 20 mg/kg IV, 2 h
[11] = Temador 125 mg/kg PO + LMP744 20 mg/kg IV, 4 h
[12] = Temador 125 mg/kg PO + LMP744 20 mg/kg IV, 8 h
[13] = Temador 125 mg/kg PO + LMP744 20 mg/kg IV, 24 h

COc1cc2c3c(n(CCCNC4CCCC4)c(=O)c2cc1OC)-c1cc2c(cc1C3=O)OCO2 [A3]
GI50 (NCI-60 cancer cell lines): 2690 nM | GI50 (SF-539 (CNS)): 1510 nM | GI50 (UACC-62 (Melanoma)): 13000 nM | GI50 (HOP-62 (Lung)): 2380 nM | GI50 (OVCAR-3 (Ovarian)): 1640 nM | GI50 (SN12C (Renal)): 1800 nM | GI50 (MCF7 (Breast)): 670 nM | GI50 (DU-145 (Prostate)): 1440 nM | GI50 (HCT-116 (Colon)): 1200 nM

COc1cc2c3c(n(CCCNC4CCCCC4)c(=O)c2cc1OC)-c1cc2c(cc1C3=O)OCO2 [A7]
GI50 (NCI-60 cancer cell lines): 6020 nM | GI50 (SF-539 (CNS)): 7740 nM | GI50 (UACC-62 (Melanoma)): 28400 nM | GI50 (HOP-62 (Lung)): 15900 nM | GI50 (OVCAR-3 (Ovarian)): 11000 nM | GI50 (SN12C (Renal)): 18600 nM | GI50 (MCF7 (Breast)): 1060 nM | GI50 (DU-145 (Prostate)): 1840 nM | GI50 (HCT-116 (Colon)): 1320 nM

Cn1nnc2c(C(N)=O)ncn2c1=O [Temadar]
Plasma Conc ([1]; Temador 125 mg/kg PO + LMP400 10 mg/kg IV, 0.25 h): 311.591 ± 40.73 µM | Brain Conc [1, 2]: 102.567 ± 16.241 µM | Brain/Plasma Conc Ratio [1, 2]: 0.50 | Brain/Plasma Conc Ratio [1, 3]: 0.56 | Plasma Conc [1, 3]: 80.639 ± 5.808 µM | Brain Conc [1, 4]: 4.739 ± 0.585 µM | Plasma Conc [1, 4]: 10.345 ± 0.724 µM | Brain Conc [1, 5]: 1.236 ± 0.654 µM | Brain/Plasma Conc Ratio [1, 5]: 0.38 | Plasma Conc [1, 5]: 3.295 ± 1.528 µM | Brain Conc [1, 6]: 0.122 ± 0.004 µM | Brain/Plasma Conc Ratio [1, 6]: 0.01 | Plasma Conc [1, 6]: 10.009 ± 5.943 µM | Brain Conc [1, 7]: 123.222 ± 49.748 µM | Brain/Plasma Conc Ratio [1, 7]: 0.33 | Plasma Conc [1, 7]: 376.314 ± 182.744 µM | Brain Conc [1, 8]: 83.539 ± 43.505 µM | Brain/Plasma Conc Ratio [1, 8]: 0.23 | Plasma Conc [1, 8]: 370.863 ± 119.965 µM | Brain/Plasma Conc Ratio [1, 9]: 0.46 | Plasma Conc [1, 9]: 357.779 ± 86.447 µM | Brain Conc [1, 10]: 96.544 ± 15.254 µM | Brain/Plasma Conc Ratio [1, 10]: 0.15 | Brain Conc [1, 11]: 12.75 ± 2.849 µM | Brain/Plasma Conc Ratio [1, 11]: 0.47 | Plasma Conc [1, 11]: 27.155 ± 4.732 µM | Brain Conc [1, 12]: 5.765 ± 3.855 µM | Brain/Plasma Conc Ratio [1, 12]: 0.57 | Plasma Conc [1, 12]: 10.048 ± 6.715 µM | Brain Conc [1, 13]: 0.914 ± 0.532 µM | Brain/Plasma Conc Ratio [1, 13]: 0.60 | concentration at 0.25 h ([1]; mouse, brain, oral, Brain Conc, Temador 125 mg/kg PO + LMP400 10 mg/kg IV, 0.25 h): 86.6 ± 10.4 µM | concentration at 0.5 h ([1]; mouse, brain, oral, Brain Conc, Temador 125 mg/kg PO + LMP400 10 mg/kg IV, 0.5 h): 47.4 ± 24.5 µM | concentration at 1 h ([1]; mouse, brain, oral, Brain Conc, Temador 125 mg/kg PO + LMP744 20 mg/kg IV, 1 h): 154 ± 38.8 µM | concentration at 0.5 h ([1]; mouse, plasma, oral, Plasma Conc, Temador 125 mg/kg PO + LMP400 10 mg/kg IV, 0.5 h): 389 ± 66 µM | concentration at 1 h ([1]; mouse, plasma, oral, Plasma Conc, Temador 125 mg/kg PO + LMP400 10 mg/kg IV, 1 h): 205 ± 27.3 µM | concentration at 2 h ([1]; mouse, plasma, oral, Plasma Conc, Temador 125 mg/kg PO + LMP744 20 mg/kg IV, 2 h): 552 ± 309 µM | concentration at 24 h ([1]; mouse, plasma, oral, Plasma Conc, Temador 125 mg/kg PO + LMP744 20 mg/kg IV, 24 h): 1.58 ± 0.509 µM

COc1cnc2c(c1)C(=O)c1c-2n(CCCn2ccnc2)c(=O)c2cc(OC)c(OC)cc12 [A8]
GI50 (NCI-60 cancer cell lines): 240 nM | GI50 (SF-539 (CNS)): 53 nM | GI50 (UACC-62 (Melanoma)): 40 nM | GI50 (HOP-62 (Lung)): 42 nM | GI50 (OVCAR-3 (Ovarian)): 600 nM | GI50 (SN12C (Renal)): 56 nM | GI50 (MCF7 (Breast)): 30 nM | GI50 (DU-145 (Prostate)): 61 nM | GI50 (HCT-116 (Colon)): 110 nM

COc1cnc2c(c1)C(=O)c1c-2n(CCCNC(C)C)c(=O)c2cc(OC)c(OC)cc12 [A11]
GI50 (NCI-60 cancer cell lines): 2340 nM | GI50 (SF-539 (CNS)): 1360 nM | GI50 (UACC-62 (Melanoma)): 2430 nM | GI50 (HOP-62 (Lung)): 700 nM | GI50 (OVCAR-3 (Ovarian)): 8990 nM | GI50 (SN12C (Renal)): 4190 nM | GI50 (MCF7 (Breast)): 220 nM | GI50 (DU-145 (Prostate)): 1270 nM | GI50 (HCT-116 (Colon)): 1020 nM
